Laboratory results from patent US20250221953A1 (The University of Chicago, priority 2022, published 2025).
Like-named read-outs stand apart in the source and are kept apart here.

Legend:
B16F10 tumor = assay: Mouse tumor model, B16F10; assay type: in vivo; conditions: B16F10 tumor-bearing C57BL/6 mice on enriched diet vs control diet
Procedure: For C57BL/6 mice and TCR-a KO mice tumor model, mice were anesthetized with isoflurane, shaved the injection site, and then injected subcutaneously in the abdominal flank with 1×10^5 B16F10, MC38, or LLC1 cells, or in the mammary gland with 2×10^5 E0771 cells. C57BL/6 nude mice were injected subcutaneously in the abdominal flank with 1×10^5B16F10 cells. […] Tumors were measured the tumors using a caliper every 2-3 days. Tumor volumes were calculated using the following formula: length×width×[(length×width)^0.5]×π/6. Mice were euthanized at humane endpoints or day 11-15 for tissue collection.
The mice were treated once a day for 5 consecutive days per week for 2 weeks. Tumors were measured the tumors using a caliper every 2-3 days. Tumor volumes were calculated using the following formula: length×width×[(length×width)^0.5]×π/6. Mice were euthanized at humane endpoints.
For anti-PD-1 treatment mouse model, 6-8 weeks old C57BL/6 mice were anesthetized with isoflurane, shaved the injection site, and then injected subcutaneously in the abdominal flank with 1×10^5 B16F10 for tumor development. […] In day 3, 6, 9, 12, and 15, 250 μg anti-PD-1 (BioXCell) or IgG control (BioXCell) was injected intraperitoneally per mouse. Tumors were measured the tumors using a caliper every 2-3 days. Tumor volumes were calculated using the following formula: length×width×[(length×width)^0.5]×π/6. […]

[1] = tested on: mouse primary CD8^+ T cells; assay: In vitro function of activated mouse primary CD8+ T cells (cytokines, Ki-67, apoptosis, p-CREB); assay type: cell-based; conditions: for effect of inhibitor/modulator on TVA-enhanced activation of CD8+ T cells (IL-2, TNF-α, IFN-γ): added synchronized with 20 μM TVA for 24 hours, SCH-202676 200 nM, H-89 200 nM, 666-15 100 nM
Procedure: For experiments with live/dead criteria, cells were first stained with Fixable Viability Dyes (FVD) (Thermo Fisher Scientific) according to the manufacturer's instructions. Subsequent surface marker staining was performed in Flow Cytometry Staining Buffer (Thermo Fisher Scientific). Intracellular staining for flow panels containing nuclear proteins was performed using the eBioscience FoxP3/Transcription Factor Staining Buffer Set (Thermo Fisher Scientific) according to the manufacturer's instructions. For intracellular staining of cytoplasmic proteins, the Fixation/Permeabilization Solution Kit (BD Biosciences) was used according to the manufacturer's instructions. […] The cell pellets were washed again with FACS buffer, centrifuged at 300×g for 5 minutes, and incubated with antibodies in FACS buffer for 45 minutes-1 hour at room temperature. […] Treatment with sulfosuccinimidyl oleate (SSO) was performed by incubating cells with 100 μM SSO for 24 hours.

Jurkat T cells = assay type: cell-based, human; conditions: IL-2 production level in treated group compared to control group, 48 hours treatment, then anti-CD3/anti-CD28 12 hours
Mouse T cell = assay: Second screen: IL-2 level of murine primary T cells; assay type: cell-based
Description: Two preliminary screens were designed and performed.

Mouse CD4^+ T cell = assay: Second screen: IL-2 level of mouse CD4+ T cells
Mouse CD8^+ T cell = assay: Second screen: IL-2 level of mouse CD8+ T cells
[2] = tested on: mouse primary CD8^+ T cells; assay: 13C1-TVA metabolic flux analysis by GC-MS; assay type: cell-based; conditions: 100 μM SSO, 24 hours
Procedure: Samples were kept at room temperature after centrifugation to form two distinct phases. 650 μL of the bottom dichloromethane fraction was transferred into a new glass tube and dried with nitrogen gas to obtain a lipid fraction pellet. […] FAME cleanup was applied if analyzing animal tissues (FAME Cleanup: a Florisil column was pre-conditioned with 3 mL of hexane, added methyl ester, and eluted twice with 1 mL isohexane-diethyl ether (95:5 v/v), with drying down in between elutions). Otherwise, samples were dried down under nitrogen and re-suspended in 50 μL of hexane to load onto gas chromatography (GC) mass spectrometry (MS). […] Metabolite levels and mass isotopomer distributions of derivatized fragments were analyzed with an in-house MATLAB script, which integrated the metabolite fragment ions and corrected for natural isotope abundances.

[3] = tested on: B cell acute lymphoblastic leukemia (B-ALL); conditions: Kantarjian et al., 2017; cited from earlier work
[4] = tested on: mouse melanoma B16 cells with CD8+ T cells; assay: CD8+ T cell mediated killing of B16 cells in vitro; assay type: cell-based
[5] = tested on: murine melanoma B16 cells; assay: Oral gavage in syngeneic mice inoculated with B16 cells; assay type: in vivo, mouse

CCCCCC/C=C\CCCCCCCCCC(=O)O [CVA, cis-Vaccenic acid, reference compound]
body weights of mice (B16F10 tumor): did not alter body weights

Cl.Cl.O=S(=O)(NCCNC/C=C/c1ccc(Br)cc1)c1cccc2cnccc12 [Compound H89, H 89 Dihydrochloride, reference compound]
effect of inhibitor/modulator on TVA-enhanced activation of CD8+ T cells (IL-2, TNF-α, IFN-γ) [1]: similarly abolishes TVA-enhanced activation of CD8^+ T cells

OC[C@H]1OC(O)[C@H](O)[C@@H](O)[C@H]1O (stereo partly drawn) [D(+)-GALACTOSE ANHYDROUS]
Relative changed percentage (%) (Jurkat T cells): 35.84%
Mouse T cell IL-2 level changes after treatment (Mouse T cell): 130.1%
Mouse CD4^+ T cell IL-2 level changes after treatment (Mouse CD4^+ T cell): 110.4%
Mouse CD8^+ T cell IL-2 level changes after treatment (Mouse CD8^+ T cell): 130.3%

Nc1nc2nc[nH]c2c(=O)[nH]1 [GUANINE]
Relative changed percentage (%) (Jurkat T cells): 15.14%
Mouse T cell IL-2 level changes after treatment (Mouse T cell): 148.6%
Mouse CD4^+ T cell IL-2 level changes after treatment (Mouse CD4^+ T cell): 110.4%
Mouse CD8^+ T cell IL-2 level changes after treatment (Mouse CD8^+ T cell): 150.8%

Br.CN=c1nc(-c2ccccc2)n(-c2ccccc2)s1 [SCH 202676 hydrobromide, reference compound]
effect of inhibitor/modulator on TVA-enhanced activation of CD8+ T cells (IL-2, TNF-α, IFN-γ) [1]: abolishes TVA-enhanced activation of CD8^+ T cells

CCCCCCCC/C=C\CCCCCCCC(=O)ON1C(=O)CC(S(=O)(=O)O)C1=O (centres unmarked) [SSO, sulfosuccinimidyl oleate, reference compound]
effect of SSO on TVA-dependent CD8+ T cell activation ([1]; 100 μM SSO, TNF-α, IFN-γ): does not affect TVA-dependent CD8^+ T cell activation
effect on import of 13C-TVA into CD8+ T cells [2]: drastically reduced import of ^13C-TVA

Cc1cn([C@H]2C[C@H](O)[C@@H](CO)O2)c(=O)[nH]c1=O [THYMIDINE]
Relative changed percentage (%) (Jurkat T cells): 39.63%
Mouse T cell IL-2 level changes after treatment (Mouse T cell): 145.6%
Mouse CD4^+ T cell IL-2 level changes after treatment (Mouse CD4^+ T cell): 135.8%
Mouse CD8^+ T cell IL-2 level changes after treatment (Mouse CD8^+ T cell): 128.9%

CC(=O)O [acetate, reference compound]
enhanced CD8+ T cell activation by pre-treatment with 20 μM TVA (TVA first) ([1]; TVA 12 hours, then 20 mM acetate 12 hours): cannot be reversed by 20 mM acetate
CD8+ T cell activation (TNF-α, IFN-γ levels) ([1]; increasing concentrations of acetate up to 20 mM): attenuate CD8^+ T cell activation

Nc1ccc(C(=O)O)cc1 [p-Aminobenzoic Acid]
Mouse T cell IL-2 level changes after treatment (Mouse T cell): 160.3%
Mouse CD4^+ T cell IL-2 level changes after treatment (Mouse CD4^+ T cell): 140.5%
Mouse CD8^+ T cell IL-2 level changes after treatment (Mouse CD8^+ T cell): 145.2%

Blinatumomab: bi-specific T-cell engager (BiTE) targeting CD19 antigen on B cells and CD3 on T cells
response rate in relapsed disease [3]: < 50%

C-PEPTIDE FRAGMENT 3-33, HUMAN/C-peptide [#203]
CD8+ T cells mediated killing of mouse melanoma B16 cells [4]: enhances CD8+ T cells mediated killing of mouse melanoma B16 cells
killing and CD8 T cell function compared with TVA [4]: better than cells treated with TVA
anti-tumor immunity [5]: increased anti-tumor immunity in a dose dependent manner

D-Glycerate 2,3-diphosphate sodium salt
Relative changed percentage (%) (Jurkat T cells): 47.74%
Mouse T cell IL-2 level changes after treatment (Mouse T cell): 106.2%
Mouse CD4^+ T cell IL-2 level changes after treatment (Mouse CD4^+ T cell): 97.9%
Mouse CD8^+ T cell IL-2 level changes after treatment (Mouse CD8^+ T cell): 121.4%

D-Pantothenic Acid, hemicalcium salt
Relative changed percentage (%) (Jurkat T cells; hemicalcium salt): 31.9171%
Relative changed percentage (%) (Jurkat T cells; listed as D-PANTOTHENIC ACID HEMICALCIUM, hemicalcium salt): −18.99%

Eicosatrienoic Acid
Relative changed percentage (%) (Jurkat T cells): 15.36%

FERRITIN TYPE IV FROM HUMAN LIVER
Relative changed percentage (%) (Jurkat T cells): 9.075%

GLYCOGEN
Relative changed percentage (%) (Jurkat T cells): 13.75%

Gelatin
Relative changed percentage (%) (Jurkat T cells): 59.8%

Hyaluronic acid sodium salt
Relative changed percentage (%) (Jurkat T cells; listed as HYALURONIC ACID SODIUM SALT, sodium salt): −9.738%
Relative changed percentage (%) (Jurkat T cells; sodium salt): 3.093%

IZING HORMONE RELEASING HORMONE HUMAN AC
Relative changed percentage (%) (Jurkat T cells): −19.59%

Iron Gluconate
Relative changed percentage (%) (Jurkat T cells): 3.271%

L-A-PHOSPHATIDYLCHOLINE TYPE XVI-E
Relative changed percentage (%) (Jurkat T cells): 38.1%

L-A-PHOSPHATIDYLETHANOLAMINE TYPE I
Relative changed percentage (%) (Jurkat T cells): 32.24%

L-a-Phosphatidylcholine
Relative changed percentage (%) (Jurkat T cells): −37.16%

LECYSTOKININ FRAGMENT 26-33 AMIDE NON SULFA
Relative changed percentage (%) (Jurkat T cells): 4.556%

LEPTIN
Relative changed percentage (%) (Jurkat T cells): 27.09%

MANGANESE SULFATE MONOHYDRATE [MANGANESE SULFATE MONOHYDRATE,]
Relative changed percentage (%) (Jurkat T cells): −14.23%

Magnesium citrate
Relative changed percentage (%) (Jurkat T cells): 3.782%

PECTIN
Relative changed percentage (%) (Jurkat T cells): −4.914%

PROINSULIN C-PEPTIDE (55-89) [PROINSULIN C-PEPTIDE (55-89)/c-peptide]
Relative changed percentage (%) (Jurkat T cells): 17.8836%

SULFUR/sulfide
Relative changed percentage (%) (Jurkat T cells): 24.14%

Silicic acid
Relative changed percentage (%) (Jurkat T cells): −1.03%

Sphingomyelin
Relative changed percentage (%) (Jurkat T cells): 95.24%

THYROCALCITONIN SALMON/calcitonin
Relative changed percentage (%) (Jurkat T cells): 11.37%

Tricalcium phosphate hydrate
Relative changed percentage (%) (Jurkat T cells): 51.49%

VASOACTIVE INTESTINAL PEPTIDE
Relative changed percentage (%) (Jurkat T cells): 1.0212%

XANTHOPHYLL FROM MARIGOLD
Relative changed percentage (%) (Jurkat T cells): 7.531%

ZINC SULFATE HEPTAHYDRATE
Relative changed percentage (%) (Jurkat T cells): 1.046%

Zinc Picolinate
Relative changed percentage (%) (Jurkat T cells): 5.492%

androsterone [AN[…],/androsterone]
Relative changed percentage (%) (Jurkat T cells): 15.91%
